The results in this text go back to patent US20200255492A1, “LEPTIN PEPTIDES AND THEIR USE FOR TREATING NEUROLOGICAL DISORDERS” (UNIVERSITY OF DUNDEE, priority 2017, published 2020).

The subject of assay [1] is SH-SY5Y. The assay can be described thus: Cell survival with Aβ1-42 and leptin (22-56) (data not shown). Format: cell-based, human. The procedure: The human neuroblastoma cell line, SH-SY5Y (ECACC, UK) was maintained in Dulbecco's Modified Eagle Medium supplemented with glucose ([…]) and 10% (v/v) cosmic calf serum (Fisher Scientific, UK) at 37° C. in a humidified atmosphere of 5% CO2, 95% air and allowed to reach 70-80% confluence before seeding. Cells (passage 10-18) were plated at 10 000 cells per well in 96 well tissue culture plates (Nunc, VWR, UK) and at a density of 2×10^5 cells in 35 mm dishes for protein extraction. To induce differentiation, cells were cultured in DMEM supplemented with glucose ([…]), 1% (v/v) cosmic calf serum and 10 μM retinoic acid for 5 days. Thereafter they were incubated in DMEM supplemented with glucose ([…]), serum replacement 2 (2%; Sigma, UK) and 18 μM 5-fluorodeoxyuridine to inhibit proliferation of undifferentiated cells. […]
The concentration of lactate dehydrogenase (LDH) in the culture medium or the mitochondrial activity within cells was used to monitor the level of cell death, as previously (Oldreive and Doherty 2010). […] Plates were washed 5-10 times in dH2O and cells solubilised in 100 μl dimethyl sulfoxide (DMSO) before reading the absorbance on a Biohit BP100 plate reader. For all assays, data is expressed as percentage relative to control, untreated wells to normalize for differences in plating density between individual experiments. […]

Assay [2] relates to adult hippocampal slices (12-24 weeks). The assay can be described thus: Excitatory synaptic transmission (fEPSP) in adult hippocampal slices. To be noted: 25 nM; 20 min; adult (12-24 weeks) slices. The class given is cell-based, Sprague Dawley rats. How it is done:
Parasagittal hippocampal slices (300 μm) were prepared from either P13-21 or 12-24-week-old male Sprague Dawley rats as previously (Moult et al. 2010). Brains were rapidly removed and placed in ice-cold artificial CSF (aCSF; bubbled with 95% O2 and 5% CO2) containing the following (in mm): 124 NaCl, 3 KCl, 26 NaHCO3, 1.25 NaH2PO4, 2 CaCl2, 1 MgSO4, and 10 d-glucose. Once prepared, parasagittal slices were allowed to recover at room temperature in oxygenated aCSF for 1 h before use. Slices were transferred to a submerged chamber maintained at room temperature and perfused with artificial cerebrospinal fluid at 2 ml min^−1. Standard extracellular recordings were used to monitor evoked field excitatory postsynaptic potentials (fEPSP) from stratum radiatum. The Schaffer collateral-commissural pathway was stimulated (constant voltage; 0.1 ms) at 0.033 Hz, using a stimulus intensity that evoked a peak amplitude ˜50% of the maximum. Synaptic potentials were low pass filtered at 2 kHz and digitally sampled at 10 kHz. The fEPSP slope was measured and expressed relative to baseline. Synaptic records are the average of 4 consecutive responses and stimulus artefacts are blanked for clarity. Recordings were made using an Axopatch 200B amplifier and analyzed using LTP v2.4 software. In synaptic plasticity studies, the degree of potentiation was calculated 30-35 min after HFS and expressed as a percentage of baseline±standard error of mean (SEM).
We have shown that leptin regulation of excitatory synaptic transmission is age-dependent. Thus in contrast to its effects in juvenile tissue, leptin (25 nM) induces a novel form of LTP in adult hippocampus (Moult and Harvey 2011). In order to verify if the leptin fragments mirror leptin action in adult tissue, the effects of the leptin fragments were examined in hippocampal slices from adult (12-24 weeks) rats.

For assay [3], the system named is mice. The assay can be described thus: Murine episodic-like memory test with hexamers. Format: in vivo. Conditions: IP 7.8 nM/ml; tested 45 minutes post-injection; vs saline. How it is done:
FIG. 24. Bar chart of the quantification of the fluorescent signal per cell following thioflavin S staining of neuronal cultures 96 hours after seeding with 1 μM Amyloid (Ab1-42). Cultures were established in triplicate on 3 separate occasions and statistical significance relative to control untreated cultures is denoted by *** where P<0.001 (A). […] 3 groups of mice (n=8 per group) were IP injected with saline (control) on 7.8 nM/ml leptin116-121 or […]. Memory performance was tested 45 minutes post-injection. Statistical significance relative to saline-injected animals is denoted by * where P<0.05. […] Leptin levels were determined by ELISA, using a commercially-supplied kit (Sigma, UK) and using blood serum harvested 24 hours post injection.
Further to this we have evaluated the effects of these hexamer peptides on episodic memory in mice. There is an 8 fold increase in episodic memory performance following treatment with leptin116-121 or […] (FIG. 24B). This implies that both leptin hexamers enhance the ability of the mice to recognise the presence of a novel object within the test arena.

For “Aβ1-42: amyloid beta 1-42, toxin used in the AD models [reference compound]”, the “survival following Aβ1-42 treatment” value in assay [1] (Aβ1-42 alone) stood at 41.2±5.8 % survival.

Consider “leptin (22-56): leptin fragment amino acids 22-56 (Bachem), comparison fragment (VPIQKVQDDTKTLIKTIVTRINDISHTQSVSSKQK; UniProt P41159 22-56, looked up, fragment) [reference compound]”, for which the “survival in Aβ1-42 treated cells” value in assay [1] (Aβ1-42 with 10 nM leptin (22-56)) turned out to be 48.6±9.3%. Besides, the synaptic transmission in assay [2] is on record as 99±2 % of baseline.

“CSLPQT (listed as Mus musculus) [leptin (117-122)]”: the “increase in episodic memory performance” value in assay [3] turned out to be 8 fold.

Take “leptin: the metabolic hormone leptin, whole (full length) leptin molecule; human leptin from Sigma in SH-SY5Y work”: the synaptic transmission in assay [2] is on record as 188±13 % of baseline.

For the substance “SCSLPQ (listed as Mus musculus) [leptin (116-121)]”, the “increase in episodic memory performance” value in assay [3] is on record as 8 fold.

Consider “SCSLPQTSGLQKPES (listed as Mus musculus) [leptin (116-130)]”, for which the synaptic transmission in assay [2] is reported as 140±13 % of baseline.
